Data taken from BindingDB's records for patent US20240190890 (Bristol-Myers Squibb, 2024).

Target: MAP kinase-activated protein kinase 2 (Homo sapiens, UniProt P49137)
Test: Not found
Description: Briefly, 10× stock solutions of MK2 (PV3317, from Life Technologies), 1.13X ATP (AS001A), and Sox conjugated peptide substrate, S/T3-Sox, (KZN1031) were prepared in 1× kinase reaction buffer consisting of 20 mM Tris, pH 7.5, 5 mM MgCl2, 1 mM EGTA, 5 mM β-glycerophosphate, 5% glycerol (10× stock, KB001A) and 0.2 mM DTT (DS001A). Enzyme solution (5 μL) was added to each of DMSO ([…]) or serially diluted test compounds prepared in DMSO in a Corning (#3574) 384-well, white, non-binding surface microtiter plate (Corning, NY). Kinase reactions were started with the addition of 45 μL of the ATP-peptide substrate S/T3-Sox mix and monitored every 71 seconds for 120 minutes at λex360/λem485 in a Synergy H4 plate reader from BioTek (Winooski, VT) at room temperature.

MAP kinase-activated protein kinase 2, sequence (P49137 whole entry): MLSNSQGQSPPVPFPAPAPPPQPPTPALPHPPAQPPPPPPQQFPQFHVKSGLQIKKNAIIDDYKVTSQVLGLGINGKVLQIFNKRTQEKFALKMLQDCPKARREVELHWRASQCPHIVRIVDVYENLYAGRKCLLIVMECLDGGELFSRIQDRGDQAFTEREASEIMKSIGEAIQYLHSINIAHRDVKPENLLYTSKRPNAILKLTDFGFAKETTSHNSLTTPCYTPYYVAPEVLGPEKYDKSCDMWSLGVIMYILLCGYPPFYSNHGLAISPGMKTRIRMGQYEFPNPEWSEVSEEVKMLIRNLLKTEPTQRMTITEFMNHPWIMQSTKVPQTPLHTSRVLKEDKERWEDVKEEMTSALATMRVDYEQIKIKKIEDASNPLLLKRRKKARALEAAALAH

Structure (SMILES) | IC50
C=Cc1nc(-c2ccc3c(ccc4sc5c(c43)NC[C@@H](C)NC5=O)n2)cc(N2CCN(C)CC2)n1 [US20240190890, Compound I-18] | 0.004 µM
C=Cc1cc(-c2ccc3c(ccc4sc5c(c43)NC[C@@H](C)NC5=O)n2)cc(C=C)n1 [US20240190890, Compound I-80] | 0.574 µM
C=Cc1cc(-c2ccc3c(ccc4sc5c(c43)NC[C@@H](C)NC5=O)n2)cc(N2CC(C)OC(C)C2)n1 (stereo not given in full) [US20240190890, Compound I-201] | 0.073 µM
C=C(CN1CCOCC1)c1cc(-c2ccc3c(ccc4sc5c(c43)NC[C@@H](C)NC5=O)n2)ncn1 [US20240190890, Compound I-139] | 0.002 µM
CCOCc1cnc(Cl)nc1-c1ccc2c(ccc3sc4c(c32)NC[C@@H](C)NC4=O)n1 [US20240190890, Compound I-3] | 0.107 µM
